Test results as given in patent US9980936B2, “BH4 antagonists and methods related thereto” (Emory University, priority 2014, dated 2018).
“Also recorded” adds a separate entry of the source.

Key:
[1] = test system: H460 or DMS53 cells expressing Bcl2 shRNA transfected with AAAA Bcl2 mutant; assay: rescue of Bcl2-silenced cells with AAAA Bcl2 mutant; type: cell-based; settings: 72 h
Text: (§1) Whether expression of exogenous Bcl2 can restore the sensitivity of Bcl2-silenced lung cancer cells to BDA-2 and whether the BDA-2/BH4 binding is important for such effect was examined. WT and BDA-2 binding deficient D10A/N11A/R12A/E13A (AAAA) Bcl2 mutant cDNA in pCIneo or vector-only control were transfected into H460 or DMS53 cells expressing Bcl2 shRNA. It has been reported that if the shRNA is directed to the 3′ UTR or 5′ UTR of the gene, the effect of the shRNA1 can be rescued by ectopically expressing the protein using the wild-type or mutant cDNA. Because Bcl2 shRNA1 targets the 5′UTR of endogenous Bcl2, the silencing effect of shRNA1 on Bcl2 expression could be rescued by transfection of exogenous WT or AAAA Bcl2 mutant. After transfection, cells were treated with BDA-2 or the BH3 mimetic ABT-199 at the indicated concentrations for 72 h. […] The apoptotic effect of BDA-2 on lung cancer cells requires its BH4 binding.

[2] = test system: H460 or DMS53 cells expressing Bcl2 shRNA transfected with WT Bcl2; assay: rescue of Bcl2-silenced cells with exogenous WT Bcl2; type: cell-based; settings: 72 h
Text: as §1

[3] = test system: Bcl2 in tumor tissues of NSCLC patients; assay: Bcl2 expression by IHC in tumor tissue of treated NSCLC patients; type: in vivo, human; settings: 5 or 10 mg/day for 28 days, 10 NSCLC patients
Experimental: To test whether a similar effect of RAD001 on Bcl2 expression occurs in patients Bcl2 expression was analyzed by IHC in baseline and post-treatment tissue samples obtained from 10 NSCLC patients treated with RAD001 (5 or 10 mg/day) for 28 days as part of a neoadjuvant clinical study of everolimus in patients with resectable NSCLC. […] Thus, inhibition of Bcl2 may enhance the potency of mTOR inhibitor against lung cancer.

A549 cells = assay: Bcl2 expression after mTOR inhibition (Western blot); type: cell-based; settings: increasing concentrations, 24 hr
Experimental: (§2) A549 or H460 cells were treated with increasing concentrations of RAD001 for 24 h. Bcl2 and p-P70S6K were analyzed by Western blot.
(§3) Rapamycin and its derivative RAD001 (i.e. everolimus) are potent allosteric inhibitors of mTOR. […] Previous reports indicate that expression of Bcl2 is associated with resistance of cancer cells to mTOR inhibitors. To further test whether mTOR inhibition regulates Bcl2 expression, A549 and H460 cells were treated with increasing concentrations of RAD001 for 24 hr.

H460 cells [4] = assay: as above; type: cell-based; settings: increasing concentrations, 24 hr
Experimental: as §2, §3

H460 cells [5] = assay: SRB cell growth assay, combination with mTOR inhibitor; type: cell-based, human; settings: BDA-366 100 nM, RAD001 1 nM, alone or in combination, 72 hr
Experimental: Cell growth was analyzed by sulforhodamine B (SRB) colorimetric assay.

[6] = biological target: purified, human Bcl2 protein (Homo sapiens, UniProt P10415); assay: in vitro cell-free Bcl2 conformational change assay (IP with anti-Bcl2/BH3 domain antibody); type: biochemical
purified, human Bcl2 protein, sequence (P10415 whole entry, the tested form may be a part): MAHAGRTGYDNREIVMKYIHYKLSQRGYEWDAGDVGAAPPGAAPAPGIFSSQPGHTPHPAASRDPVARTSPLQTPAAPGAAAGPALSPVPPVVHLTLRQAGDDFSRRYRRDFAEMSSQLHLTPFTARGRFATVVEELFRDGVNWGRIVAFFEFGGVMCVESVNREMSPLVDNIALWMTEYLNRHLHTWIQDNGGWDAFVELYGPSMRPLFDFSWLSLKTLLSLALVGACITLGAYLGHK
Experimental: To test whether BDA-2 directly induces Bcl2 conformational change, an in vitro cell-free assay was employed. Purified recombinant Bcl2 protein was incubated with increasing concentrations of BDA-2 in lysis buffer, followed by immunoprecipitation (IP) using the anti-Bcl2/BH3 domain antibody.

Plasmid pUC19 DNA = assay: electrophoretic mobility shift assay (EMSA); type: binding
Experimental: To test whether BDA-2 reacts with DNA as a crosslinker, electrophoretic mobility shift assay (EMSA) was performed. Cisplatin, a known DNA binding agent, was used as positive control. Plasmid pUC19 DNA was incubated with BDA-2 or cisplatin.

purified recombinant Bax = assay: cell-free Bax activation (IP using 6A7 Bax antibody); type: biochemical; settings: without Bcl2
Experimental: BDA-366-induced Bcl2 conformational change was also confirmed by immunofluorescence using a Bcl2/BH3-domain specific antibody. […] To test this possibility, a 6A7 Bax antibody that only recognizes the conformationally changed, active, form of Bax was employed. Purified Bcl2 was treated with BDA-366 in lysis buffer for 1 h. The mixture of Bcl2/BDA-2 was then incubated with purified recombinant Bax for another 2 h, followed by IP using 6A7 antibody.
To further test whether the BH3 domain of Bcl2 is important for BDA-366 activation of Bax, purified recombinant WT and the BH3 deletion (ΔBH3) mutant Bcl2 proteins were incubated with purified Bax protein in the absence or presence of BDA-366, followed by IP with 6A7 antibody. […] To test this at the cellular or mitochondrial level, WT, ΔBH3 Bcl2 mutant and empty vector (pCIneo) were transfected into H1299 cells that express undetectable levels of endogenous Bcl2 but high levels of endogenous Bax. Cells or isolated mitochondria from these cells were treated with BDA-2, followed by IP with Bcl2 BH3 or 6A7 antibody, respectively.

In the case of `CC1(C)CCC(CN2CCN(c3ccc(C(=O)NS(=O)(=O)c4ccc(NCC5CCOCC5)c([N+](=O)[O-])c4)c(Oc4cnc5[nH]ccc5c4)c3)CC2)=C(c2ccc(Cl)cc2)C1` [ABT-199, reference compound], the “sensitivity of cells restored after expression of AAAA Bcl2” value [1] is reported as “restored the sensitivity” and the “sensitivity of cells after expression of exogenous WT Bcl2” value [2] is reported as “restored sensitivity”.

In the case of `CO[C@H]1C[C@@H]2CC[C@@H](C)[C@@](O)(O2)C(=O)C(=O)N2CCCC[C@H]2C(=O)O[C@H]([C@H](C)C[C@@H]2CC[C@@H](OCCO)[C@H](OC)C2)CC(=O)[C@H](C)/C=C(\C)[C@@H](O)[C@@H](OC)C(=O)[C@H](C)C[C@H](C)/C=C/C=C/C=C/1C` [RAD001], the “Bcl2 expression in post-treatment tumor tissues compared to baseline” value [3] is reported as “increased expression of Bcl2”, the Bcl2 expression (A549 cells) is reported as “up-regulation of Bcl2 in a dose-dependent manner; also recorded: up-regulates Bcl2” and the Bcl2 expression (H460 cells [4]) is reported as “up-regulation of Bcl2 in a dose-dependent manner; also recorded: up-regulates Bcl2”. The cell growth inhibition (H460 cells [5]) was “partially inhibited lung cancer cell growth”.

With `COc1cc([C@@H]2c3cc4c(cc3[C@@H](O[C@@H]3O[C@@H]5CO[C@@H](C)O[C@H]5[C@H](O)[C@H]3O)[C@H]3COC(=O)[C@H]23)OCO4)cc(OC)c1O` [VP-16] the “direct induction of Bcl2 conformational change (BH3 exposure)” value [6] was “not”.

With `N.N.[Cl][Pt][Cl]` [cisplatin, reference compound] the “direct induction of Bcl2 conformational change (BH3 exposure)” value [6] was “not” and the “binding to pUC19 DNA causing mobility shift” value (Plasmid pUC19 DNA) was “can bind to pUC19 DNA to cause mobility shift”.

For `C#Cc1cccc(Nc2ncnc3cc(OCCOC)c(OCCOC)cc23)c1` [erlotinib, N-(3-ethynylphenyl)-6,7-bis(2-methoxyethoxy)quinazolin-4-amine], the Bcl-2/Bcl-XL expression (lung cancer cells) was “up-regulation of Bcl-2/Bcl-XL”.

In the case of BAM7 [reference compound], the “direct activation of Bax” value (purified recombinant Bax) is reported as “can directly activate Bax”.
